The values below come from patent publication US20240270698A2, “NOVEL PYRIMIDINE DERIVATIVE AND USE THEREOF” (KOREA RESEARCH INSTITUTE OF CHEMICAL TECHNOLOGY, priority 2019, published 2024).

Data set [1] concerns the target T1, human recombinant MLK3 protein (Homo sapiens, UniProt Q16584).
T1 construct: purchased Eurofins
Nature of the data set: MLK3 kinase activity assay (Eurofins, gamma-33P-ATP, filtermat scintillation counting). Format: biochemical. Particulars: human recombinant MLK3, 120 minutes at room temperature.

Data set [2] addresses T2, human recombinant LRRK2 protein (Homo sapiens, UniProt Q5S007).
T2 construct: purchased Eurofins
Nature of the data set: LRRK2 kinase activity assay (Eurofins, gamma-33P-ATP, filtermat scintillation counting). Format: biochemical. Particulars: human recombinant LRRK2, 40 minutes at room temperature.

In data set [3] the test system is HepG2 cancer cells. The data set is described as follows: Anticancer activity, cell viability by CCK-8, HepG2. Format: cell-based. Particulars: HepG2, 10 μM, 72 hours. Put shortly:
(§1)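 HS746T or HepG2 cells seeded at 4,000 cells/well, left 24 h, then exposed to compounds for 72 h. Viability measured by CCK-8 and expressed as % of untreated control.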

Data set [4] has as its system HS746T cancer cells. The data set is described as follows: Anticancer activity, cell viability by CCK-8, HS746T. Particulars: 72 hours. Format: cell-based. In a few lines:
as §1

T1 sequence (Q16584 whole entry): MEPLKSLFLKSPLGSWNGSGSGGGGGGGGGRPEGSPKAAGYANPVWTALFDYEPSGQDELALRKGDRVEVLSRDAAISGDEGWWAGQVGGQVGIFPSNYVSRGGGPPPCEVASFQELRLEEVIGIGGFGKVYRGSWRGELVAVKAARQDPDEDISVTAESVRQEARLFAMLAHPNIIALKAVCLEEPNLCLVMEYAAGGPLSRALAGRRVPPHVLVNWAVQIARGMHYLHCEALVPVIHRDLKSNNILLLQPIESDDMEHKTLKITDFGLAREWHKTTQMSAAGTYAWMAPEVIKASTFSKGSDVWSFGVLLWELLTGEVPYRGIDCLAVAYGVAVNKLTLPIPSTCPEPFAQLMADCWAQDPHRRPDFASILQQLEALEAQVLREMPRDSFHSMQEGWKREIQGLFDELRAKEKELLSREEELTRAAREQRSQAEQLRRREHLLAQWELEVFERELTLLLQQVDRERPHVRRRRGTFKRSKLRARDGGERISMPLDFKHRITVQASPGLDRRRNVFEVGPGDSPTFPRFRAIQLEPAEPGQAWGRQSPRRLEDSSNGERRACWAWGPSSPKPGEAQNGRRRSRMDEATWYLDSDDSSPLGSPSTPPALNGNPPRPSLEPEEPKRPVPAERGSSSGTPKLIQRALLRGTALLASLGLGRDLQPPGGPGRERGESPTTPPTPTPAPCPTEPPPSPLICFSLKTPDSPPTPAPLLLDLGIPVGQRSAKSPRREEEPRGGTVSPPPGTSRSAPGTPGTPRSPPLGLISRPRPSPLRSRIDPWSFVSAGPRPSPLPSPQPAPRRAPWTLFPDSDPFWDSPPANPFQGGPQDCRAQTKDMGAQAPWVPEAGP
T2 sequence (Q5S007 whole entry): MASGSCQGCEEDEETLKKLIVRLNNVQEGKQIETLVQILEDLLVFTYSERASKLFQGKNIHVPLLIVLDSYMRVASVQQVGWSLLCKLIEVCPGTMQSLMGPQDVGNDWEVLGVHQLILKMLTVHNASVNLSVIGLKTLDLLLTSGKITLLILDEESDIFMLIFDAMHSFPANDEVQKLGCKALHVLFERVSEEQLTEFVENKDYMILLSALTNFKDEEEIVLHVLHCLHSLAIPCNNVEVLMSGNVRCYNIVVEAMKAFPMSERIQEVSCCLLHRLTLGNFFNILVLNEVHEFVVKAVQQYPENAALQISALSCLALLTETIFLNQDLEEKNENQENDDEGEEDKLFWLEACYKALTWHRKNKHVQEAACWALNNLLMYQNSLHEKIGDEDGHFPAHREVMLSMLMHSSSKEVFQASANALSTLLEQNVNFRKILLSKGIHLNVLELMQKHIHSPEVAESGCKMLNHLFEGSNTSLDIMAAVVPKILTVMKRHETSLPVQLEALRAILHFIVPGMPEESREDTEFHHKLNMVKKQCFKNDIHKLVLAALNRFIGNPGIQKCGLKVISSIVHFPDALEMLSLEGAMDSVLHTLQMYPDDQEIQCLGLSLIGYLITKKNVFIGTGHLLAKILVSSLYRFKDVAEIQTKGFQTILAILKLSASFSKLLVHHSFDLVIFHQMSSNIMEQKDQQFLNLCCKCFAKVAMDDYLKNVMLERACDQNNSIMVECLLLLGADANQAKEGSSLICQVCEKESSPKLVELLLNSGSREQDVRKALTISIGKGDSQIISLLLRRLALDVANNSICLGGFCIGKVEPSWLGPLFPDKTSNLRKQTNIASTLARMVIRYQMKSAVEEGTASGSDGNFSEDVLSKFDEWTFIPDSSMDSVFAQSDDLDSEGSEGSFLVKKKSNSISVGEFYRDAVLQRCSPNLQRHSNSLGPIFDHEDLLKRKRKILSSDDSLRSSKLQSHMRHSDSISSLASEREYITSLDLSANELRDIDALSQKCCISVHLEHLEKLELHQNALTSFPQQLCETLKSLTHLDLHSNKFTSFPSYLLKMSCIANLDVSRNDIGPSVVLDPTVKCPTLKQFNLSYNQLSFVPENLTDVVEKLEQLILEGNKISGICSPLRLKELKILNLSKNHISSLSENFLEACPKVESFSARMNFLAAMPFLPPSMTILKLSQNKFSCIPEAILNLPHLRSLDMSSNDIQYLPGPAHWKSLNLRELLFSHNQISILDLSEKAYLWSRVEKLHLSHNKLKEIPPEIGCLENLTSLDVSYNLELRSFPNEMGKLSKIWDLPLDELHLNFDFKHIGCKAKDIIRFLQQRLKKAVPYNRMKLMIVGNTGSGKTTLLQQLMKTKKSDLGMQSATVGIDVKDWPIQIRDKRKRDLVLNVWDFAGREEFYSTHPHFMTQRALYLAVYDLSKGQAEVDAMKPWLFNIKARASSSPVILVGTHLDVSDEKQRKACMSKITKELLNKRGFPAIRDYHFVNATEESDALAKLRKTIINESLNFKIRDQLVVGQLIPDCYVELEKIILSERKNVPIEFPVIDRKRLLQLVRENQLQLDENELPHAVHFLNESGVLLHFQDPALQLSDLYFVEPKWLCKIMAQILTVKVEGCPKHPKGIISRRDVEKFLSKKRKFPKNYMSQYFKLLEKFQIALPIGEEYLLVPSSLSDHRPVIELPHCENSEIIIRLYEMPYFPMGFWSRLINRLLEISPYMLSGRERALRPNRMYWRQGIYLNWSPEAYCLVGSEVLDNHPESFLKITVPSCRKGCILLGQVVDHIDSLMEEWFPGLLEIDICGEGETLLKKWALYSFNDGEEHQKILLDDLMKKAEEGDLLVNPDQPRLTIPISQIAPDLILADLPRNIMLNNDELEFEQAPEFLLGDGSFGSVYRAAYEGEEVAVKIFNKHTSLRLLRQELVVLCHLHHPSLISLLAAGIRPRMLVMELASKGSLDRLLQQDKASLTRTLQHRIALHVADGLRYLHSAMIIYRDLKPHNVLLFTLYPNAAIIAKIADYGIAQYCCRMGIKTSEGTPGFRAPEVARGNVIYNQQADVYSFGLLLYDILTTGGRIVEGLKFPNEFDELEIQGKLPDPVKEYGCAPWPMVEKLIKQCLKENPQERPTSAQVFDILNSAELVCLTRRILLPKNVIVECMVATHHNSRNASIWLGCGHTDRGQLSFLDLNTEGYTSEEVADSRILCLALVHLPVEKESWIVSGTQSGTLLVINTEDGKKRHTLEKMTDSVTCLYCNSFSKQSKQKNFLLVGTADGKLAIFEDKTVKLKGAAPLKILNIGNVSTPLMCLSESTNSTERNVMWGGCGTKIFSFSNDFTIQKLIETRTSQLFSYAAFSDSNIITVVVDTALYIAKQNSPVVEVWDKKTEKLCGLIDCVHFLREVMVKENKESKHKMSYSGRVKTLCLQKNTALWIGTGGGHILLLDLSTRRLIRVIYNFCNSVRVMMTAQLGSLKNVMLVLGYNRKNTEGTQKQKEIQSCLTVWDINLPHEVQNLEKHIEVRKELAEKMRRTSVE

As a reminder, the IC50 is the concentration at which inhibition is half-maximal. Take `CC(C)n1cc(-c2n[nH]c3ccc(Nc4ncc(Cl)c(Nc5ccccc5P(C)(C)=O)n4)cc23)cn1` [compound 93, (2-((5-Chloro-2-((3-(1-isopropyl-1H-pyrazol-4-yl)-1H-indazol-5-yl)amino)pyrimidin-4-yl)amino)phenyl)dimethylphosphine oxide]: the half-inhibitory concentration (IC50) in data set [1] and in data set [2] was 1 to 10 nM in each case. Also, in data set [3], the “Cell viability (% of Con. 10 μM) HepG2” value was 42 % of Con. Besides, the “Cell viability (% of Con. 10 μM) HS746T” value in data set [4] is 18 % of Con.
As for `Cn1cc(-c2n[nH]c3ccc(Nc4ncc(Cl)c(Nc5ccccc5P(C)(C)=O)n4)cc23)cn1` [compound 94, (2-((5-Chloro-2-((3-(1-methyl-1H-pyrazol-4-yl)-1H-indazol-5-yl)amino)pyrimidin-4-yl)amino)phenyl)dimethylphosphine oxide], the 50% inhibitory concentration (IC50) in data set [1] and in data set [2] was 1 to 10 nM throughout. Moreover, the “Cell viability (% of Con. 10 μM) HepG2” value in data set [3] is reported as 30 % of Con. The “Cell viability (% of Con. 10 μM) HS746T” value in data set [4] is given as 15 % of Con.
As for `CCCn1cc(-c2n[nH]c3ccc(Nc4ncc(Cl)c(Nc5ccccc5P(C)(C)=O)n4)cc23)cn1` [compound 95, (2-((5-Chloro-2-((3-(1-propyl-1H-pyrazol-4-yl)-1H-indazol-5-yl)amino)pyrimidin-4-yl)amino)phenyl)dimethylphosphine oxide], the half-inhibitory concentration (IC50) in data set [1] and in data set [2] was 1 to 10 nM in each case. In addition, the “Cell viability (% of Con. 10 μM) HepG2” value in data set [3] is listed as 39 % of Con. For the same molecule, the “Cell viability (% of Con. 10 μM) HS746T” value in data set [4] is on record as 19 % of Con.
On to `CP(C)(=O)c1ccccc1Nc1nc(Nc2ccc3[nH]nc(-c4ccccc4)c3c2)ncc1Cl` [compound 96, (2-((5-chloro-2-((3-phenyl-1H-indazol-5-yl)amino)pyrimidin-4-yl)amino)phenyl)dimethylphosphine oxide], for which the IC50 in data set [1] and in data set [2] was 1 to 10 nM in each case. In addition, the “Cell viability (% of Con. 10 μM) HepG2” value in data set [3] was 15 % of Con. Further, the “Cell viability (% of Con. 10 μM) HS746T” value in data set [4] is 10 % of Con.
Turning to `CP(C)(=O)c1ccccc1Nc1nc(Nc2ccc3[nH]nc(-c4cccc([N+](=O)[O-])c4)c3c2)ncc1Cl` [compound 97, (2-((5-Chloro-2-((3-(3-nitrophenyl)-1H-indazol-5-yl)amino)pyrimidin-4-yl)amino)phenyl)dimethylphosphine oxide], the half-maximal inhibitory concentration (IC50) in data set [1] and in data set [2] was 1 to 10 nM in each case. Also, in data set [3], the “Cell viability (% of Con. 10 μM) HepG2” value is listed as 21 % of Con. Besides, in data set [4], the “Cell viability (% of Con. 10 μM) HS746T” value is on record as 11 % of Con.
On to `CP(C)(=O)c1ccccc1Nc1nc(Nc2cnc3[nH]nc(-c4cccnc4F)c3c2)ncc1Cl` [compound 98, (2-((5-Chloro-2-((3-(2-fluoropyridin-3-yl)-1H-pyrazolo[3,4-b]pyridin-5-yl)amino)pyrimidin-4-yl)amino)phenyl)dimethylphosphine oxide], for which the IC50 in data set [1] and in data set [2] was 1 to 10 nM throughout. Further, in data set [3], the “Cell viability (% of Con. 10 μM) HepG2” value is on record as 27 % of Con. Besides, the “Cell viability (% of Con. 10 μM) HS746T” value in data set [4] is 10 % of Con.
As for `CC(=O)N1CC=C(c2n[nH]c3ccc(Nc4ncc(Cl)c(Nc5ccccc5P(C)(C)=O)n4)cc23)CC1` [compound 99, 1-(4-(5-((5-Chloro-4-((2-(dimethylphosphoryl)phenyl)amino)pyrimidin-2-yl)amino)-1H-indazol-3-yl)-3,6-dihydropyridin-1(2H)-yl)ethan-1-one], the half-inhibitory concentration (IC50) in data set [1] and in data set [2] was 1 to 10 nM each time. Further, the “Cell viability (% of Con. 10 μM) HepG2” value in data set [3] is 26 % of Con. Moreover, the “Cell viability (% of Con. 10 μM) HS746T” value in data set [4] is 9 % of Con.
As for `CP(C)(=O)c1ccccc1Nc1nc(Nc2ccc3[nH]nc(-c4ccc(CO)o4)c3c2)ncc1Cl` [compound 101, (2-((5-chloro-2-((3-(5-(hydroxymethyl)furan-2-yl)-1H-indazol-5-yl)amino)pyrimidin-4-yl)amino)phenyl)dimethylphosphine oxide], the IC50 fell in the range of 1 to 10 nM in data set [1] and 10 to 100 nM in data set [2]. The “Cell viability (% of Con. 10 μM) HepG2” value in data set [3] is 56 % of Con. Also, the “Cell viability (% of Con. 10 μM) HS746T” value in data set [4] is listed as 13 % of Con.
As for `CP(C)(=O)c1ccccc1Nc1nc(Nc2ccc3[nH]nc(-c4ccncc4)c3c2)ncc1Cl` [compound 104, (2-((5-Chloro-2-((3-(pyridin-4-yl)-1H-indazol-5-yl)amino)pyrimidin-4-yl)amino)phenyl)dimethylphosphine oxide], the IC50 in data set [1] and in data set [2] was 1 to 10 nM in each case. Also, the “Cell viability (% of Con. 10 μM) HepG2” value in data set [3] was 30 % of Con. The “Cell viability (% of Con. 10 μM) HS746T” value in data set [4] is recorded as 11 % of Con.
For `CP(C)(=O)c1ccccc1Nc1nc(Nc2ccc3[nH]nc(-c4ccc(C#N)cc4)c3c2)ncc1Cl` [compound 105, 4-(5-((5-Chloro-4-((2-(dimethylphosphoryl)phenyl)amino)pyrimidin-2-yl)amino)-1H-indazol-3-yl)benzonitrile], the IC50 in data set [1] fell in the range of 1 to 10 nM; in data set [2], 10 to 100 nM. For the same molecule, in data set [3], the “Cell viability (% of Con. 10 μM) HepG2” value is 55 % of Con. In addition, the “Cell viability (% of Con. 10 μM) HS746T” value in data set [4] was 23 % of Con.
The corresponding values for `CC(=O)c1ccc(-c2n[nH]c3ccc(Nc4ncc(Cl)c(Nc5ccccc5P(C)(C)=O)n4)cc23)cc1` [compound 106, 1-(4-(5-((5-chloro-4-((2-(dimethylphosphoryl)phenyl)amino)pyrimidin-2-yl)amino)-1H-indazol-3-yl)phenyl)ethan-1-one] are 1 to 10 nM, 10 to 100 nM, 75 % of Con and 17 % of Con.
Take `CP(C)(=O)c1ccccc1Nc1nc(Nc2ccc3[nH]nc(-c4ccc(F)c(Cl)c4)c3c2)ncc1Cl` [compound 107, (2-((5-Chloro-2-((3-(3-chloro-4-fluorophenyl)-1H-indazol-5-yl)amino)pyrimidin-4-yl)amino)phenyl)dimethylphosphine oxide]: the IC50 in data set [1] and in data set [2] was 1 to 10 nM each time. For the same molecule, in data set [3], the “Cell viability (% of Con. 10 μM) HepG2” value was 63 % of Con. Further, the “Cell viability (% of Con. 10 μM) HS746T” value in data set [4] is recorded as 11 % of Con.
Turning to `CP(C)(=O)c1ccccc1Nc1nc(Nc2ccc3[nH]nc(-c4ccc(O)cc4)c3c2)ncc1Cl` [compound 108, (2-((5-chloro-2-((3-(4-hydroxyphenyl)-1H-indazol-5-yl)amino)pyrimidin-4-yl)amino)phenyl)dimethylphosphine oxide], the figures for the IC50 in data set [1] and in data set [2] were 1 to 10 nM and 10 to 100 nM, respectively. Also, the “Cell viability (% of Con. 10 μM) HepG2” value in data set [3] was 67 % of Con. Moreover, in data set [4], the “Cell viability (% of Con. 10 μM) HS746T” value is 8 % of Con.
On to `COc1ccc(-c2n[nH]c3ccc(Nc4ncc(Cl)c(Nc5ccccc5P(C)(C)=O)n4)cc23)cc1F` [compound 109], for which the values for the half-inhibitory concentration (IC50) in data set [1] and in data set [2] were 1 to 10 nM and 10 to 100 nM, respectively. In data set [3], the “Cell viability (% of Con. 10 μM) HepG2” value is on record as 53 % of Con. In addition, in data set [4], the “Cell viability (% of Con. 10 μM) HS746T” value is reported as 25 % of Con.
As for `CP(C)(=O)c1ccccc1Nc1nc(Nc2ccc3[nH]nc(-c4ccc(OC(F)(F)F)cc4)c3c2)ncc1Cl` [compound 110, (2-((5-Chloro-2-((3-(4-(trifluoromethoxy)phenyl)-1H-indazol-5-yl)amino)pyrimidin-4-yl)amino)phenyl)dimethylphosphine oxide], the IC50 in data set [1] lay within 1 to 10 nM; in data set [2], 10 to 100 nM. Besides, the “Cell viability (% of Con. 10 μM) HepG2” value in data set [3] is on record as 24 % of Con. The “Cell viability (% of Con. 10 μM) HS746T” value in data set [4] is 12 % of Con.
